For one assay, the system named is C57BL/6 mice. Kind of assay: K/B×N serum transfer mouse model of rheumatoid arthritis. The class given is in vivo. As to the method:
The TCR transgenic mice expressing the KRN and the MHC class II A^g7 molecule (K/B×N mice) have developed a severe inflammatory arthritis. The administration of serum of these mice to healthy recipient mice causes inflammatory arthritis over a period of about 15 days with a peak ignition around day 7 post-injection.
Two mouse serum administrations from K/B×N were performed (day 0 and day 2). The injection of serum (100 μl/mouse) is performed by intra-peritoneal (ip) injection in mice C57BL/6 (or B6) for 8 weeks (n=10); untreated mouse (n=10).
The P140 peptide (100 μg/100 μl; iv retro-orbital) was administered as follows:
Curative treatment: Injection at day 1 and day 4, to guide the peak of inflammatory disease. Preventive treatment: Injection at day −7 and day −2. Bleeding S0 (at day 0) is followed by bloodletting conducted every six days to dispose of serum. The study ends when inflammation has returned to its basal level, to around day 20 (see FIG. 21).
During the peak of inflammation, every day the animals are evaluated, and swelling score of articulation is established. It is ranged from 0 to 4 and based on a joint observation of the animal. In practice, this score is given for each leg (4 values) and these values are added together to get a general score that ranges from 0 to 16 (FIG. 22).

The next assay relates to MRL/lpr B cells. Conditions: cited from earlier work.
A further assay concerns Lewis rats. The assay can be described thus: Chronic-EAN rat model for CIDP. Conditions: P140 100 μg/rat i.p., vs untreated rats. The class given is in vivo. The protocol: Male Lewis rats, 7-8 weeks old, weighing 250-270 g, purchased from Charles River (Domaine des Oncins, L'Arbresle, France) were used. To induce chronic-EAN (CIDP), rats were immunized with S-palm-P0(180-199) peptide by subcutaneous injection at the base of the tail of 200 μL of an inoculum containing 200 μg of peptide (Ac(palm)KRGRQTPVLYAMLDHSRS), and 0.5 mg of Mycobacterium tuberculosis (strain H37 RA, Difco, Detroit, Mich., USA) emulsified in 100 μL of saline solution and 100 μL of Freund's incomplete adjuvant (SIGMA-Aldrich, St-Quentin Fallavier, France).
Body weight and clinical scores are assessed daily until 60 days post-immunization (dpi). Severity of paresis is graded as follows: 0=no illness; 1=flaccid tail; 2=moderate paraparesis; 3=severe paraparesis; 4=tetraparesis; 5=death.
100 μg/rat P140 peptide in 500 μL water/saline (1:10) were intraperitoneally injected at 5, 7, 9, 13 dpi and 3 times per week from 22 dpi until the end of the study.

Numbered stars: 1 amine (or outer) side, 2 acyl side, 3 side chain; on linkers, the order of the positions; unused ones are H or OH. Square brackets hold non-standard residues; d marks the D form. Peptide text beside a SMILES is read from it. ξ: configuration not given here. X1 = CSCC[C@H](NC(=N)[C@H](Cc1c[nH]cn1)N[*:1])C(=O)[*:2]; pS = N[C@@H](COP(=O)(O)O)C(=O)O; Ile(3ξ) = CCC(C)[C@H](N)C(=O)O

`CCC(C)[C@H](NC(=O)[C@H](Cc1ccccc1)NC(=O)[C@H](C)NC(=O)[C@H](Cc1ccc(O)cc1)NC(=O)CNC(=O)[C@H](CCCNC(=N)N)NC(=O)[C@@H]1CCCN1C(=O)[C@H](CCCCN)NC(=O)CNC(=O)[C@H](COP(=O)(O)O)NC(=O)[C@H](CCCNC(=N)N)NC(=O)[C@H](CCCCN)NC(=O)[C@H](CO)NC(=O)[C@H](Cc1ccc(O)cc1)NC(=O)[C@@H](NC(=O)[C@H](CCSC)NC(=N)[C@H](Cc1c[nH]cn1)NC(=O)[C@@H](NC(=O)[C@@H](N)CCCNC(=N)N)C(C)CC)C(C)C)C(=O)N[C@@H](CCC(=O)O)C(=O)N[C@@H](Cc1ccc(O)cc1)C(=O)O` (stereo partly drawn) [Compound P140] (H-R[Ile(3ξ)][X1]VYSKR[pS]GKPRGYAF[Ile(3ξ)]EY-OH) registered a Weight loss with C57BL/6 mice (curative protocol (P140 day 1 and day 4), from day 2) of 15%. The Weight gain in the assay with C57BL/6 mice (curative protocol, between day 5 and the end of the study, controls 5%) came to 20%. Further, the “Inflammation score per leg, maximum” value with C57BL/6 mice (curative protocol, rear legs) was ~1.5. Moreover, the Weight loss in the assay with C57BL/6 mice (preventive protocol (P140 day −7 and day −2), day 1 to day 7, controls 10%) came to 5%. The “Increase in size of joints, right back legs” value with C57BL/6 mice (preventive protocol, day 0 to day 7, controls about 22%) is listed as “around 12%”. Further, in the assay on C57BL/6 mice (preventive protocol, day 0 to day 7, controls about 30%), the “Increase in size of the joint, left hind paws” value is reported as “about 15%”. Moreover, the “Increase in size of articulation, left front leg” value with C57BL/6 mice (preventive protocol, controls 45%) worked out at 20%. Also, the “Swelling in the joints of right front leg” value in the assay on C57BL/6 mice (preventive protocol, controls nearly 45%) is listed as “+20%”. Moreover, the “General inflammation score, maximum” value in the assay on C57BL/6 mice (preventive protocol, sum of four legs, controls around 7 (printed day 7)) was ≤ 5. The “Autophagy markers SQSTM1 and MAP1LC3 in MRL/lpr B cells” value in the assay on MRL/lpr B cells (after P140 treatment (Page et al., 2011)) is listed as “accumulation”. In the assay with MRL/lpr B cells (after treating mice with P140 peptide (Page et al., 2011; Macri et al.)), the “Expression of HSPA8 and LAMP-2A in MRL/lpr B cells” value is given as “down-regulated”. Further, in the assay with Lewis rats, the “Chronicity of the disease” value was “seems abolish the chronicity of the disease”, the Maximal clinical scores entry is “decreased the maximal clinical scores”, the “Onset of the disease” value is given as “delayed the onset of the disease” and the “Weight loss during the disease course” value was “less important”.

The values are drawn from patent US20190352341A1, “MODIFIED PEPTIDES AND THEIR USE FOR TREATING SYSTEMIC LUPUS ERYTHEMATOSUS” (IMMUPHARMA FRANCE SA, priority 2018, published 2019).
